We go through 1 compound from ChEMBL document CHEMBL4330156, “Amides and Flavonoids from the Fruit and Leaf Extracts of Melodorum siamensis” (J Nat Prod, 2019).

Molecules are shown by their SMILES. Calls of active or inactive are those of the source. The rule behind the calls is not given here.

In this assay the target is Transcription factor p65 (Mus musculus) (UniProt Q04207). In words: Inhibition of TNFalpha/IL-1beta-induced NFkB p65 translocation from cytosol to nucleus in mouse MIN6 cells at 50 uM after 30 mins by immunofluorescence based high content imaging analysis. The assay is classed as cell-based.
Transcription factor p65 (Mus musculus), sequence (Q04207 whole entry): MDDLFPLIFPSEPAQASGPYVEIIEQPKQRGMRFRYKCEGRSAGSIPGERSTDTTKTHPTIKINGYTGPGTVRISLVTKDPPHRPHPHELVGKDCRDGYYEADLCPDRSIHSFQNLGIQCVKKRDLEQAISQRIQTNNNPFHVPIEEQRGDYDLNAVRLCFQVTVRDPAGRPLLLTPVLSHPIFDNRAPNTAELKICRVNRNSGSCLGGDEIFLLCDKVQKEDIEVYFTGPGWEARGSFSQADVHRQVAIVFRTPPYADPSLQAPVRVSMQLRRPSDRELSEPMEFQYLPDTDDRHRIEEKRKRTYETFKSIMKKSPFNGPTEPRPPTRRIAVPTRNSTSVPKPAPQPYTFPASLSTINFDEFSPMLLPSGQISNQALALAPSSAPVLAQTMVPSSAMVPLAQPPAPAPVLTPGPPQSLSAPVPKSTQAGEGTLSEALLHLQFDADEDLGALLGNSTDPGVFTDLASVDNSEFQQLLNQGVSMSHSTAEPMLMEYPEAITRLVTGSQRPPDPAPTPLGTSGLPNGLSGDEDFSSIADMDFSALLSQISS

`COc1cc(O)cc(O)c1C(=O)/C=C/c1ccc(O)cc1`: the inhibition entry was “Active”.
